Reference: paper PMC12186256, “Inhibitors of the PqsR Quorum-Sensing Receptor Reveal Differential Roles for PqsE and RhlI in Control of Phenazine Production” (ACS Chemical Biology, 2025)

Columns and labels:
[1] = test system: pphz1-lux in WT P. aeruginosa; test: P. aeruginosa pphz1-lux bioluminescent reporter assay; type: cell-based, Pseudomonas aeruginosa PA14; details: for IC50: Pseudomonas aeruginosa, PA14, read-out: IC50 PA14; for IC50 values in P. aeruginosa: pphz1-lux in WT P. aeruginosa
Procedure: Strains were struck onto LB agar and grown overnight at 37 °C. The following day, individual colonies were isolated and transferred into LB liquid medium followed by incubation at 37 °C. After overnight growth, cultures were diluted 1:1000 into M9 medium. 100 μL of these suspensions were aliquoted into wells of 96 well plates (Corning). Plates were incubated for 24 h at 37 °C in a BioSpa Automated Incubator (Agilent). Light production and OD600 were quantified from each well at either 15 or 20 min intervals (Neo2, Agilent). When noted, SPR741 (DC Chemicals) was added at the specified concentration.
One thousand small molecules from the initial screen were selected for retesting, following the identical protocol used for the screen. Of these molecules, 751 were assayed for luciferase inhibition using P. aeruginosa containing ptac-lux instead of pphz1-lux. Any compound that inhibited this reporter by at least 50% was eliminated from the pipeline. One hundred and sixty-seven compounds were further analyzed in dilution series to determine IC50 values with respect to pphz1-lux inhibition. A ten-point, 2-fold serial dilution series was made of each test compound in DMSO solvent. The highest tested concentration was 40 μM. These assays were carried out in 384 well plates (Corning) as described above using both the P. aeruginosa ptac-lux and pphz1-lux reporter strains.

[2] = test system: WT P. aeruginosa; test: Pyocyanin inhibition assay; type: cell-based, Pseudomonas aeruginosa; details: 100 μM compound
Procedure: WT P. aeruginosa and the ΔpqsE mutant were struck onto LB agar and grown overnight at 37 °C. Individual colonies were diluted into 5 mL of LB liquid medium. Aliquots were transferred into glass tubes containing test compounds with and without 8 μg/mL SPR741. WT P. aeruginosa to which DMSO had been added served as the negative control. The P. aeruginosa ΔpqsE strain to which DMSO had been added served as the positive control. Compounds were tested at 100 μM. Tubes were shaken for 18 h at 37 °C followed by centrifugation at 15,000 rpm for 5 min. Cell-free culture fluids were collected and assessed for pyocyanin by absorbance at 695 nm. Values were normalized by culture density, using absorbance at OD600. Percent inhibition of OD695/OD600 was normalized to the DMSO control.

[3] = molecular target: T1, PqsR (Pseudomonas aeruginosa, UniProt Q9I4X0); test: E. coli PqsR/ppqsA-lux reporter assay; type: cell-based
T1 construct: expressed in transfected cells; host or cells: Escherichia coli carrying pBAD-pqsR and pCS26-ppqsA-luxCDABE
Description: To determine the target(s) of the 49 hit compounds in P. aeruginosa, we assayed them in a set of E. coli-based reporter strains that read out exclusively RhlR, LasR, or PqsR function. The three assays work by a similar logic. In each case, the gene encoding one of the three quorum-sensing receptors is driven by an arabinose-inducible promoter. The receptor proteins, once made, are activated by exogenously supplied cognate autoinducer. The receptor–autoinducer complexes activate a target gene promoter fused to luciferase (prhlA-lux for RhlR, plasB-lux for LasR, and ppqsA-lux for PqsR). […] To further verify that PqsR is the target of our inhibitors, we assessed whether production of PQS and its precursor, HHQ, declined following treatment of WT P. aeruginosa with one test compound, A7. […] Below, we focus on these 30 compounds that we propose target PqsR. The other 19 compounds will be characterized at a later time.
As previously reported, following overnight growth in LB liquid medium at 37 °C, E. coli reporter strains were diluted 1:1000 in LB liquid medium containing 1% arabinose (PqsR) or 0.1% arabinose (LasR and RhlR). The reporter strain for PqsR activity carried pCS26-ppqsA-luxCDABE and pBAD-pqsR. The reporter strain for LasR activity carried pCS26-plasB-luxCDABE and pBAD-lasR; the reporter strain for RhlR activity carried pCS26-prhlA-luxCDABE and pBAD-rhlR. Test compounds were added at the specified concentrations. To activate PqsR, PQS was added at 100 nM. To activate LasR, 3O-C12-HSL was added at 5 nM. To activate RhlR, C4-HSL was added at 10 μM. To establish IC50 values, 10-point, […] serial dilution series were made starting at 100 μM of each compound. The mixtures were incubated at 37 °C for 24 h (BioSpa, Agilent). Bioluminescence and OD600 were assessed every 15 min (Neo2, Agilent). Readings from the 9 h time point, representing peak signal production, were used to calculate the IC50 values.

[4] = test system: WT P. aeruginosa; test: Real time PCR of phzH and phzS; type: cell-based, Pseudomonas aeruginosa; details: 100 μM compound, qPCR relative to DMSO
Procedure: Following overnight growth in LB at 37 °C with aeration, P. aeruginosa strains were diluted to an OD600 of 0.001 and grown to an OD600 of 3 at 37 °C with aeration. 500 μL of cells were collected by centrifugation and flash frozen. RNA was extracted using RNAeasy Plus mini columns (Qiagen). DNA was removed, followed by cDNA synthesis, using SuperScript IV VILO Master Mix with ezDNase Enzyme (Invitrogen). RNA was quantified using PerfeCTa SYBR Green FastMix Low ROX (Quanta BioSciences). Relative quantity is calculated by ΔΔCt compared to DMSO treatment and the reference gene, rpsL. Outliers with values higher or lower than twice the standard deviation of the mean were removed.

[5] = test system: WT P. aeruginosa; test: Quinolone (HHQ, PQS) quantitation by LCMS in culture fluids; type: cell-based, Pseudomonas aeruginosa; details: WT P. aeruginosa treated with 100 μM compound; compared with ΔpqsR
Procedure: For all assays: the designated P. aeruginosa strains were grown as described above for the pyocyanin inhibition assay. Following overnight growth, culture fluids were separated from cells by centrifugation and filtration.
For quinolone quantitation: cell-free culture fluids were extracted with 2 mL of ethyl acetate that had been acidified with 0.15 mL/L glacial acetic acid. The organic layer was isolated and dried down in vacuo. Dried samples were resuspended in 50 μL of methanol and analyzed by LCMS on an Agilent 1290 Infinity II HPLC connected to an MSD iQ. The injection was 2 μL. The mobile phase was a water–MeCN gradient containing 0.1% formic acid. Chromatography was performed as follows: 2 min hold at 5% […], ramp up to 95% MeCN over 8 min hold for 2 min at 95% MeCN, return to 5% MeCN and re-equilibrate for 1 min. Data were acquired in positive mode scanning between m/z 100–1000. Source parameters for acquisition were as follows: gas temperature 325 °C, gas flow 11 (L/min), capillary voltage 3500 V. Data were processed using Agilent OpenLAB CDS. Peaks were extracted by m/z, quantified by area under the curve. Each compound was compared to a 100 ng/μL commercial standard of PQS or HHQ.

T1 sequence (Q9I4X0 whole entry): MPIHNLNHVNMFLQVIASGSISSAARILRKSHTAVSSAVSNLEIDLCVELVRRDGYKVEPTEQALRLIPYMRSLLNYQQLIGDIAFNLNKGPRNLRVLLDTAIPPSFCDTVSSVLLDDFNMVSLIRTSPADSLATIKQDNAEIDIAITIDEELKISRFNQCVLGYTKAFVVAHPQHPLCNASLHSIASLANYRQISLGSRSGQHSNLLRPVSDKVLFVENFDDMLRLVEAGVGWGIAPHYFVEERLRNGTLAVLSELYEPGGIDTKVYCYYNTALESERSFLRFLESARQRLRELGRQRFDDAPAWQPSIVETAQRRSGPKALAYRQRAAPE

## Cc1cc(Br)ccc1NC(=O)CNC(=O)c1ccc(-n2cnc3ccccc32)cc1 [Compound D1]
[1]
  IC50: 3900 ± 320 nM
[2]
  pyocyanin inhibition without versus with SPR741: improved pyocyanin inhibition in the absence of SPR741 compared to in its presence
[3]
  IC50: 1990 ± 880 nM

## O=C(c1csc2nc(-c3ccc(F)cc3)cn12)N1CCN(c2ccccc2F)CC1 [Compound E3]
[1]
  IC50: 5000 ± 260 nM

## O=C(Cn1nnc(-c2ccccc2)n1)Nc1ccc(Br)cc1 [Compound C6]
[3]
  IC50: 370 ± 80 nM

## Cc1cc(Br)ccc1OCCn1cnc2ccccc2c1=O [Compound D4]
[1]
  IC50: 1100 ± 28 nM
[3]
  IC50: 1230 ± 310 nM

## Oc1cc(CN2CCC(CCn3cccn3)CC2)nc2ccc(F)cc12 [Compound C9]
[1]
  IC50: 7600 ± 250 nM
[3]
  IC50: 210 ± 80 nM

## O=S(=O)(Nc1ccc(F)cc1Cl)c1ccc(-c2cc(C(F)(F)F)n[nH]2)s1 [Compound B7]
[1]
  IC50: 3500 ± 360 nM
[3]
  IC50: 3800 ± 300 nM

## N#Cc1cnc(SCC(=O)Nc2ccc(Cl)c(Br)c2)nc1N [Compound C7]
[1]
  IC50: 2400 ± 400 nM
[3]
  IC50: 670 ± 80 nM

## CC(=O)c1cc(-c2ccccc2)n(CC(=O)Nc2nc3ccc(C)cc3s2)c1C [Compound B14]
[1]
  IC50: 11400 ± 900 nM
[3]
  IC50: 14500 ± 3390 nM

## O=C(Nc1nnc(C(F)(F)F)s1)C1CC(=O)N(CCc2c[nH]c3ccc(Cl)cc23)C1 (stereo not shown) [Compound B4]
[1]
  IC50: 2800 ± 100 nM
[3]
  IC50: 590 ± 70 nM

## N#Cc1ccc(NCC2CCC3(COCCN(Cc4ccccc4OC(F)F)C3)O2)nc1 (stereo not shown) [Compound A8]
[4]
  phzH expression: reduction only to the level displayed by the ΔpqsE mutant
  phzS expression: reduced to the level in the ΔpqsE strain
[1]
  IC50: 800 ± 200 nM
  IC50 values in P. aeruginosa: submicromolar
[3]
  IC50: 1900 ± 440 nM

## Cc1ccc(C(=O)NCc2nc(-c3ccc(Oc4ccccc4)cc3)no2)cc1 [Compound B9]
[3]
  IC50: 2000 ± 240 nM

## O=S(=O)(c1ccc(-c2cc(C(F)(F)F)n[nH]2)s1)N1CC=C(c2ccccc2)CC1 [Compound B6]
[1]
  IC50: 400 ± 30 nM
  IC50 values in P. aeruginosa: submicromolar
[3]
  IC50: 550 ± 120 nM

## O=C(NC1CCN(Cc2cc(F)cc(F)c2)CC1)c1cc(C(F)(F)F)n[nH]1 [Compound C8]
[1]
  IC50: 3900 ± 380 nM
[3]
  IC50: 270 ± 40 nM

## COc1ccc(Cl)cc1C(=O)NCC(O)C1CCCCC1 (stereo not shown) [Compound D3]
[1]
  IC50: 8200 ± 770 nM
[3]
  IC50: 8390 ± 75 nM

## O=C(CN1CCC(c2nc(-c3cccc(F)c3)no2)CC1)Nc1ccccc1 [Compound B15]
[1]
  IC50: 8600 ± 190 nM
[3]
  IC50: 7040 ± 1180 nM

## O=C(NCc1cccs1)C1CCN(c2ccc3nnc(-c4ccccc4F)n3n2)CC1 [Compound B13]
[3]
  IC50: 11900 ± 980 nM

## CC(C)C(C(=O)O)N1C(=O)C(=Cc2cccc(Br)c2)SC1=S (stereo not shown) [Compound E6]
[1]
  IC50: 9700 ± 490 nM

## N#CCc1ccc(NC(=O)CNc2ccc(C(F)(F)F)cc2)cc1 [Compound D2]
[1]
  IC50: 2300 ± 20 nM
[3]
  IC50: 1320 ± 170 nM

## CCOc1ccc(-n2nnnc2CNC(=O)Nc2cccc(Cl)c2)cc1 [Compound B8]
[1]
  IC50: 6400 ± 1000 nM
[3]
  IC50: 2370 ± 770 nM

## COc1cccc(-c2nc(CC(=O)Nc3ccc(F)cc3)no2)c1 [Compound C2]
[1]
  IC50: 3200 ± 80 nM
[3]
  IC50: 830 ± 170 nM

## O=C(Cn1cnc2c(oc3ccccc32)c1=O)N1CCC(Cc2ccccc2)CC1 [Compound B12]
[1]
  IC50: 10500 ± 1200 nM
[3]
  IC50: 14500 ± 1900 nM

## O=C(NC(C(=O)N1CCOCC1)C12CC3CC(CC(C3)C1)C2)c1ccc([N+](=O)[O-])cc1 (stereo not shown) [Compound B10]
[1]
  IC50: 10500 ± 1400 nM

## CC(C)Oc1ccc(N2CC(C(=O)Nc3cccc(Cl)c3Cl)CC2=O)cc1 (stereo not shown) [Compound B2]
[1]
  IC50: 4900 ± 260 nM
[3]
  IC50: 4700 ± 560 nM

## O=C(Nc1ccc(Cl)c(Cl)c1)c1ccc(=O)n(Cc2cccc(F)c2)n1 [Compound E5]
[1]
  IC50: 2300 ± 120 nM
[3]
  IC50: 2870 ± 840 nM

## N#Cc1cccc(CNCC2Cn3nnc(-c4ccccc4)c3CO2)c1 (stereo not shown) [Compound A9]
[1]
  IC50: 38000 ± 2400 nM
[3]
  IC50: 3900 ± 650 nM

## CCOC1CCN(C(=O)c2cccc(-c3ccc(OC(F)F)cc3)c2)CC1 [Compound C10]
[1]
  IC50: 4400 ± 160 nM

## O=C(NCc1ccc(OC(F)F)cc1)c1ccc(C2SCCS2)cc1 [Compound D6]
[1]
  IC50: 530 ± 28 nM
  IC50 values in P. aeruginosa: submicromolar
[3]
  IC50: 420 ± 45 nM

## N#Cc1cc(CN2CCC3(CC2)CC(Nc2ncccn2)C3)ccc1F [Compound A7]
[5]
  production of HHQ: reduced to the level made by the P. aeruginosa ΔpqsR strain
  production of PQS: reduced to the level made by the P. aeruginosa ΔpqsR strain
[1]
  IC50: 2200 ± 230 nM
[3]
  IC50: 510 ± 160 nM

## Cc1nn(-c2ccccc2)c(-n2cccc2)c1C(=O)N1CCC(C(=O)NCCc2ccccc2)CC1 [Compound B3]
[1]
  IC50: 2000 ± 280 nM
[3]
  IC50: 5200 ± 1700 nM

## Cc1noc(CN2CCCC(CCC(=O)Nc3ccc(C(F)(F)F)cc3)C2)n1 (stereo not shown) [Compound C11]
[1]
  IC50: 2800 ± 190 nM
[3]
  IC50: 2940 ± 830 nM
